Literature values in patent publication US12115179B2, “Pharmaceutical composition, methods for treating and uses thereof” (Boehringer Ingelheim International GmbH, priority 2009, dated 2024).

Conditions: metformin on its own, in the diabetic

## CN(C)C(=N)N=C(N)N [Met, metformin]
  average improvement in the HbA1c value: 1.0-1.5%
